Measurements as given in ChEMBL document CHEMBL5108047 (J Med Chem, 2022).

Tests used:
[1] = molecular target: DNA polymerase theta (Homo sapiens, UniProt O75417); test: Inhibition of DNA polymerase theta in LIG4 knock out HEK293T cells assessed as decrease in MMEJ-mediated DNA repair preincubated for 1 day followed by lentivirus solution addition for 24 hrs prior to media replacement with compound and measured after 96 hrs by flow cytometry based traffic-light reporter assay; assay type: cell-based
Chain of DNA polymerase theta (O75417 whole entry): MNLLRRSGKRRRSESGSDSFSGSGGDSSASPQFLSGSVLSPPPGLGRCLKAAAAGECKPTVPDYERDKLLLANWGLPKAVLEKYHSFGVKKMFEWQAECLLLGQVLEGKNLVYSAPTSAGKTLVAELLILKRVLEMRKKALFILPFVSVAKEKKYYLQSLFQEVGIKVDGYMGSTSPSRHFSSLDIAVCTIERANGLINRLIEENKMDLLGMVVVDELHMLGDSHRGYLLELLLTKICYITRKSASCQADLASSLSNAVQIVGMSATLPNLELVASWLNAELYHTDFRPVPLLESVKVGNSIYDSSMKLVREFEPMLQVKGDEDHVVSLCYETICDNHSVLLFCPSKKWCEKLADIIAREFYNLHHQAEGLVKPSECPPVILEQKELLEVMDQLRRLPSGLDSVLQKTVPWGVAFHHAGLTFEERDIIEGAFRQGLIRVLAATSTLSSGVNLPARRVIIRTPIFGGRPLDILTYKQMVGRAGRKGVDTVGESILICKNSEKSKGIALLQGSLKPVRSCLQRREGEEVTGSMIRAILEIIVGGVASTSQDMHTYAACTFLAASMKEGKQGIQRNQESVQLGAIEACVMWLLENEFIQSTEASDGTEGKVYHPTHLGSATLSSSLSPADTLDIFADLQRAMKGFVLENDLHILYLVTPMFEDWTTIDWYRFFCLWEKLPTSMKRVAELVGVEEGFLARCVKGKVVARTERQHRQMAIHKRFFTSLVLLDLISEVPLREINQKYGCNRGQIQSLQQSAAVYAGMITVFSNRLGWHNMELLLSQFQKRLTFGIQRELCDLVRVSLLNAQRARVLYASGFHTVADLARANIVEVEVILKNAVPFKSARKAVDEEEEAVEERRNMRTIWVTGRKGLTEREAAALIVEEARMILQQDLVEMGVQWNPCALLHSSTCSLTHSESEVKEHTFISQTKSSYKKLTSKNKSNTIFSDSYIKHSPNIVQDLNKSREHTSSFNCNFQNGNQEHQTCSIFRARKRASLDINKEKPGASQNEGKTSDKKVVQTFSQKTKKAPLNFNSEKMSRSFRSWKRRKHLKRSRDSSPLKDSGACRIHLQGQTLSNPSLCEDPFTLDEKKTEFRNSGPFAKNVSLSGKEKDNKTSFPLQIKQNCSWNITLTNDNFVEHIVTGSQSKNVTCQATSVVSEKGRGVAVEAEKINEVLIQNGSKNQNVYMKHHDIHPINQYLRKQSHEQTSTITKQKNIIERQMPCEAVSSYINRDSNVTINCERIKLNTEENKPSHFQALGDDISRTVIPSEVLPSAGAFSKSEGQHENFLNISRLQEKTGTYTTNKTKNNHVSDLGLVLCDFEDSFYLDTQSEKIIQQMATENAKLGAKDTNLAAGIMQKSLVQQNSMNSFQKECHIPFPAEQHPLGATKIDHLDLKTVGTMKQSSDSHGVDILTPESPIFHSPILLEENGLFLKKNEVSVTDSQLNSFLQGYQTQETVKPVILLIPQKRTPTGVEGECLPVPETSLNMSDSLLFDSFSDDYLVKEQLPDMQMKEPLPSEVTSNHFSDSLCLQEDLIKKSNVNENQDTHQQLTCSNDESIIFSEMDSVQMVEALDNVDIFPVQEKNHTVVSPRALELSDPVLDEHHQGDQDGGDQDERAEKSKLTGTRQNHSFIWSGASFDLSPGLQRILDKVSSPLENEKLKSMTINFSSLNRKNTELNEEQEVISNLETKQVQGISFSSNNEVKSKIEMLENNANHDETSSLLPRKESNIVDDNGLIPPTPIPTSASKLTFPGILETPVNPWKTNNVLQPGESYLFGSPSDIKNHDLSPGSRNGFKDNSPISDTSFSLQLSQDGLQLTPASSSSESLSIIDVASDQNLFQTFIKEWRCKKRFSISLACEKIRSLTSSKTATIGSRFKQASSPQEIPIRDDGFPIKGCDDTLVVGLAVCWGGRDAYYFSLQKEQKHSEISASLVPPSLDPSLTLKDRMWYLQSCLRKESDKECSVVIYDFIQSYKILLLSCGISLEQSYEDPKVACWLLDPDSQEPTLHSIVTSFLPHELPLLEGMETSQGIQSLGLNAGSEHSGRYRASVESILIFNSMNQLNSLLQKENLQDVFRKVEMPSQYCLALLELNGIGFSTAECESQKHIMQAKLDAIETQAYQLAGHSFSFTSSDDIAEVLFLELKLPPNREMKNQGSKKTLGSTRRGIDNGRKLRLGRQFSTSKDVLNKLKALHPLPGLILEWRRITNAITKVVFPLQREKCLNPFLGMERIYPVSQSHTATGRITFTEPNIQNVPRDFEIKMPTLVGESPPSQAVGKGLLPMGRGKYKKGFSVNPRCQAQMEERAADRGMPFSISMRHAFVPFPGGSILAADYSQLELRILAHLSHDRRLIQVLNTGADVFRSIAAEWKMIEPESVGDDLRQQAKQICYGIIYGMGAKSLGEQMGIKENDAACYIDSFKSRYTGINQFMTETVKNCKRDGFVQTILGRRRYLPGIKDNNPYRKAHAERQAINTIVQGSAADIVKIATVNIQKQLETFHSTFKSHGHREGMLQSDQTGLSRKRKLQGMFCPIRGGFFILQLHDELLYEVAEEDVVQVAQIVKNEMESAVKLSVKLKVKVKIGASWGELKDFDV

[2] = AUC in CD-1 mouse at 20 mg/kg, po measured upto 24 hrs by reverse phase LCMS analysis; assay type: ADME, organism-based; parameters: time < 24 hrs, dose 20 mg/kg, route po; conditions: in vivo
[3] = molecular target: T1, DNA polymerase subunit gamma-1 (Homo sapiens, UniProt P54098); test: Inhibition of human DNA polymerase gamma
T1 sequence (P54098 whole entry): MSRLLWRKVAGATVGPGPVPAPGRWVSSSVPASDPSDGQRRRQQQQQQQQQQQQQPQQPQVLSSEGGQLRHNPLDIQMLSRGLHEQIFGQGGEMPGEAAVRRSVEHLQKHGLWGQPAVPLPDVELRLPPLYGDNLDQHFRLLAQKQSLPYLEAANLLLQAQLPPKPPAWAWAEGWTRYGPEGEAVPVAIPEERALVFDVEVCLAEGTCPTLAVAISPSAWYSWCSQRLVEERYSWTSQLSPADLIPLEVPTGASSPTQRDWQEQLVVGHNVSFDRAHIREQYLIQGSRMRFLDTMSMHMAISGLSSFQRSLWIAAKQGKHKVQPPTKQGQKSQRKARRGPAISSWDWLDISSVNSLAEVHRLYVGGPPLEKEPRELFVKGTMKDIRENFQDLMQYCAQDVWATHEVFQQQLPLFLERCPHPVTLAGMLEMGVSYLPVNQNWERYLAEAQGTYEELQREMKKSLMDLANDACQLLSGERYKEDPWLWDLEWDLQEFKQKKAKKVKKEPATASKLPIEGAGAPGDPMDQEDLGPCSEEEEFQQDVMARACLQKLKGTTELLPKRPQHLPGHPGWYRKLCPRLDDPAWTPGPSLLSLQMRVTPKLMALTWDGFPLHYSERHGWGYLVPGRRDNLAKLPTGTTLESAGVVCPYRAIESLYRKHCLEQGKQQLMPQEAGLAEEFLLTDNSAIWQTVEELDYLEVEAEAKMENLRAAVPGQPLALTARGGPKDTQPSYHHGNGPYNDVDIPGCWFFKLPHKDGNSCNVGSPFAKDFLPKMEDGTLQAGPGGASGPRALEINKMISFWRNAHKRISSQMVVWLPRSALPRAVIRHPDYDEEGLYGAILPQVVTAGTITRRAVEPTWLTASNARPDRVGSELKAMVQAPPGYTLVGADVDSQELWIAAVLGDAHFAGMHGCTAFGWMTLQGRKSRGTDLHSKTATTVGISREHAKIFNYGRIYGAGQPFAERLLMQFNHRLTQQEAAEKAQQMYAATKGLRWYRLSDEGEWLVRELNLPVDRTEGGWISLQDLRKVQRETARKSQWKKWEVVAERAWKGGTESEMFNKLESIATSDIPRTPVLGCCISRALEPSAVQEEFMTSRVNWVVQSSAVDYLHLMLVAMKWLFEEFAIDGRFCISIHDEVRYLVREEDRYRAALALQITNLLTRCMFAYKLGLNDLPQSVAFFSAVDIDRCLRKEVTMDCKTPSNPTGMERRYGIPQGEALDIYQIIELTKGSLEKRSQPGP

[4] = Inhibition of MMEJ-mediated DNA repair in CRSIPRR/Cas9-induced wildtype human HCT-116 cells incubated for 24 hrs by PCR analysis; assay type: functional, cell-based

Structure (SMILES): Nc1ccc(C#CCN(C(=O)Cc2ncc(C(F)(F)F)cc2C(F)(F)F)c2ccc(F)cc2)nn1
- IC50 [1]: 940 nM
- AUC [2]: 49.7 µM·h
- IC50 [3]: > 100000 nM
- IC50 [4]: 450 nM
